Test results from patent US10517889B2, “Modulators of SMAD7 expression” (Ionis Pharmaceuticals, Inc., priority 2017, dated 2019).
Strand notation (5' to 3'): a small letter for the sugar, then the base; units joined by * are phosphorothioate-linked, units joined directly phosphodiester-linked; [ ] holds rarer units or linkages, { } end groups; capitals alone tell only the bases. k = constrained ethyl (cEt); [5mC] = 5-methylcytosine; d = 2'-deoxy (DNA)

System: human SMAD7 mRNA
Assay: Antisense inhibition of human SMAD7 mRNA expression in Hep3B cells by 3-10-3 cEt gapmers, 10,000 nM, electroporation (Example 2)
Type: cell-based
Settings: approximately 24 hours
How it was run: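 Percent inhibition of SMAD7 mRNA, relative to untreated cells, after ~24 h exposure of electroporated Hep3B cells to 10,000 nM cEt gapmer; levels by qRT-PCR, corrected for total RNA.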

[1] = Hep3B cells, 10,000 nM antisense oligonucleotide, electroporation, RT-PCR primer probe set RTS5062, relative to untreated control cells
[2] = Hep3B cells, electroporation with 10,000 nM antisense oligonucleotide, primer probe set RTS5062, relative to untreated control cells
[3] = SMAD7 mRNA, Hep3B cells, 10,000 nM antisense oligonucleotide, electroporation, primer probe set RTS5062, relative to untreated control cells
[4] = Hep3B cells, electroporation with 10,000 nM antisense oligonucleotide, SMAD7 mRNA by RT-PCR (RTS5062), relative to untreated control cells
[5] = SMAD7 mRNA, Hep3B cells, electroporation with 10,000 nM antisense oligonucleotide, primer probe set RTS5062, relative to untreated control cells
[6] = Hep3B cells, electroporation, 10,000 nM antisense oligonucleotide, RTS5062, relative to untreated control cells
[7] = Hep3B cells, electroporation with 10,000 nM antisense oligonucleotide, RTS5062, percent inhibition of SMAD7 mRNA relative to untreated control cells

799860 (kT*kG*k[5mC]*d[5mC]*dG*dA*d[5mC]*dA*d[5mC]*dA*dT*dG*dA*kG*kG*k[5mC]; antisense) [compound 799860]
% Inhibition [1]: 0%

798986 (antisense kG*kA*kT*dG*dA*d[5mC]*d[5mC]*dG*d[5mC]*d[5mC]*d[5mC]*d[5mC]*d[5mC]*k[5mC]*kT*kT) [compound 798986]
% inhibition of SMAD7 mRNA expression [2]: 34%

800787 (antisense k[5mC]*kA*kG*dT*dA*dG*dA*dG*d[5mC]*d[5mC]*dT*d[5mC]*d[5mC]*k[5mC]*k[5mC]*kA) [compound 800787]
% Inhibition [3]: 38%

799840 (antisense kA*kG*kG*dG*dA*dA*dG*dT*dT*dA*dG*dT*dG*kT*kT*kT) [compound 799840]
% Inhibition [1]: 22%

798876 (kG*kG*k[5mC]*d[5mC]*dG*d[5mC]*dT*dG*d[5mC]*dA*dG*dG*d[5mC]*kT*kG*kT; antisense) [compound 798876]
% Inhibition [1]: 50%

799962 (antisense k[5mC]*k[5mC]*kA*dA*d[5mC]*d[5mC]*d[5mC]*d[5mC]*dA*dG*dA*dG*dG*kT*kG*kA) [compound 799962]
% Inhibition [4]: 0%

799127 (antisense kA*kG*kG*dG*dA*d[5mC]*dA*dT*d[5mC]*d[5mC]*d[5mC]*d[5mC]*dG*k[5mC]*kT*kT) [compound 799127]
% inhibition of SMAD7 mRNA expression [2]: 67%

829947 (kG*kG*kG*d[5mC]*dA*dG*d[5mC]*d[5mC]*dA*dG*dT*dT*dA*kA*kT*k[5mC]; antisense) [compound 829947]
% Inhibition [5]: 31%

799692 (antisense kA*k[5mC]*kA*d[5mC]*dA*dG*dT*dA*dA*d[5mC]*dA*dA*d[5mC]*kA*kA*kT) [compound 799692]
% inhibition of SMAD7 mRNA expression [6]: 0%

798928 (antisense kT*kA*kG*d[5mC]*dA*dG*d[5mC]*dA*dA*dA*dG*dT*dA*kG*kT*kT) [compound 798928]
% Inhibition [1]: 6%

799029 (kG*kG*kA*dG*dA*dG*dA*d[5mC]*dA*d[5mC]*d[5mC]*dG*d[5mC]*kT*kT*kG; antisense) [compound 799029]
% inhibition of SMAD7 mRNA expression [2]: 0%

800068 (antisense kA*k[5mC]*kA*d[5mC]*dT*dA*dA*d[5mC]*dT*dG*dG*d[5mC]*dT*k[5mC]*k[5mC]*kA) [compound 800068]
% Inhibition [4]: 34%

790697 (kA*kT*kT*d[5mC]*dA*dG*dG*dG*dT*dG*dT*d[5mC]*dA*kG*k[5mC]*k[5mC]; antisense) [compound 790697]
% Inhibition [3]: 59%

830048 (kT*kT*kT*d[5mC]*d[5mC]*dG*dA*dT*dT*dG*dG*d[5mC]*dA*kG*kG*kT; antisense) [compound 830048]
% Inhibition [4]: 57%

800094 (antisense kA*kT*kG*dG*dA*dA*d[5mC]*d[5mC]*dT*dT*dG*dA*dA*kG*kG*k[5mC]) [compound 800094]
% Inhibition [1]: 49%

830108 (kT*kT*k[5mC]*dA*dT*dT*dA*dA*dG*d[5mC]*d[5mC]*d[5mC]*dG*k[5mC]*kT*k[5mC]; antisense) [compound 830108]
% Inhibition [4]: 54%

798817 (kG*k[5mC]*k[5mC]*dA*d[5mC]*d[5mC]*dA*d[5mC]*dG*d[5mC]*dA*d[5mC]*d[5mC]*kA*kG*kT; antisense) [compound 798817]
% Inhibition [4]: 26%

799206 (kT*kA*kT*dA*dT*dT*dT*dA*d[5mC]*dA*dA*dG*dT*kA*kA*kT; antisense) [compound 799206]
% Inhibition [2]: 0%

830210 (kG*kA*k[5mC]*d[5mC]*dG*dG*dA*dA*dG*dT*d[5mC]*dT*dT*kG*kT*kA; antisense) [compound 830210]
% Inhibition [4]: 29%

798935 (antisense kA*kA*kA*dG*d[5mC]*dA*dA*dG*d[5mC]*dA*d[5mC]*dT*d[5mC]*kA*kG*kG) [compound 798935]
% Inhibition [2]: 48%

829768 (antisense kG*k[5mC]*kA*dG*dG*dA*dG*dG*d[5mC]*dA*d[5mC]*dG*d[5mC]*kG*kG*kT) [compound 829768]
% Inhibition [3]: 41%

798720 (antisense kG*kG*k[5mC]*dA*dG*d[5mC]*dA*dT*d[5mC]*d[5mC]*dA*dG*d[5mC]*k[5mC]*k[5mC]*kT) [compound 798720]
% Inhibition [4]: 25%

798726 (antisense k[5mC]*kA*k[5mC]*d[5mC]*dT*d[5mC]*dG*d[5mC]*dA*d[5mC]*d[5mC]*dG*d[5mC]*k[5mC]*kT*kT) [compound 798726]
% inhibition of SMAD7 mRNA expression [2]: 7%

799498 (antisense kT*k[5mC]*kA*dA*dG*dA*dA*d[5mC]*dT*d[5mC]*dT*d[5mC]*d[5mC]*kT*kA*kA) [compound 799498]
% inhibition of SMAD7 mRNA expression [6]: 31%

800020 (kA*kA*k[5mC]*d[5mC]*dT*d[5mC]*dT*dG*dA*dA*dG*dG*d[5mC]*kA*kA*kA; antisense) [compound 800020]
% Inhibition [4]: 21%

830066 (kA*kA*kA*dT*dG*dG*dT*dG*d[5mC]*dT*d[5mC]*dT*dG*k[5mC]*k[5mC]*k[5mC]; antisense) [compound 830066]
% Inhibition [4]: 37%

799910 (antisense k[5mC]*k[5mC]*kA*dA*d[5mC]*dT*d[5mC]*d[5mC]*dA*dT*dT*d[5mC]*dA*kT*kA*kA) [compound 799910]
% Inhibition [1]: 36%

799045 (kG*kG*kA*d[5mC]*dA*dG*dA*dG*d[5mC]*d[5mC]*dG*dT*dG*k[5mC]*kT*k[5mC]; antisense) [compound 799045]
% inhibition of SMAD7 mRNA expression [2]: 37%

829948 (k[5mC]*kG*kG*dG*d[5mC]*dA*dG*d[5mC]*d[5mC]*dA*dG*dT*dT*kA*kA*kT; antisense) [compound 829948]
% Inhibition [5]: 43%

799275 (antisense k[5mC]*kA*kG*dT*dT*dA*dA*dT*d[5mC]*dA*dT*dT*dA*k[5mC]*kT*k[5mC]) [compound 799275]
% Inhibition [7]: 0%

799479 (antisense kT*kG*k[5mC]*d[5mC]*d[5mC]*dT*dT*d[5mC]*dT*dG*d[5mC]*dA*dG*kT*kG*kG) [compound 799479]
% inhibition of SMAD7 mRNA expression [2]: 24%

830130 (antisense k[5mC]*k[5mC]*kA*d[5mC]*d[5mC]*dT*d[5mC]*d[5mC]*dG*dA*dG*dG*d[5mC]*kA*k[5mC]*k[5mC]) [compound 830130]
% Inhibition [4]: 32%

799859 (kT*kG*kT*dA*dA*dT*dT*dT*dA*dG*d[5mC]*dA*dA*kT*kT*k[5mC]; antisense) [compound 799859]
% Inhibition [1]: 32%

830165 (antisense kA*k[5mC]*kA*dG*d[5mC]*dT*dG*dT*dA*d[5mC]*d[5mC]*dA*dG*kG*kG*k[5mC]) [compound 830165]
% Inhibition [4]: 58%

790874 (k[5mC]*k[5mC]*kG*dG*dA*dA*dG*dT*d[5mC]*dT*dT*dG*dT*kA*kT*kT; antisense) [compound 790874]
% Inhibition [3]: 0%

799021 (kG*kG*kA*d[5mC]*dT*dG*d[5mC]*dA*dA*dA*d[5mC]*d[5mC]*dT*k[5mC]*kT*k[5mC]; antisense) [compound 799021]
% Inhibition [2]: 62%

799914 (antisense k[5mC]*kT*kG*dA*dG*dA*dG*dA*dG*dG*d[5mC]*d[5mC]*dT*k[5mC]*kA*kG) [compound 799914]
% Inhibition [1]: 24%

799756 (antisense k[5mC]*kA*kG*dG*dG*d[5mC]*dA*dG*d[5mC]*dT*d[5mC]*d[5mC]*dG*kA*kG*kA) [compound 799756]
% inhibition of SMAD7 mRNA expression [6]: 44%

829848 (antisense kT*kT*kG*dT*d[5mC]*d[5mC]*dG*dA*dA*dT*dT*dG*dA*kG*k[5mC]*kT) [compound 829848]
% Inhibition [5]: 47%

799609 (k[5mC]*k[5mC]*k[5mC]*d[5mC]*dA*dT*dG*dG*dA*dA*d[5mC]*dG*dA*kT*k[5mC]*kA; antisense) [compound 799609]
% Inhibition [7]: 41%

798812 (k[5mC]*kT*k[5mC]*d[5mC]*dA*dG*dA*dA*dG*dA*dA*dG*dT*kT*kG*kG; antisense) [compound 798812]
% Inhibition [4]: 0%

829973 (kA*kA*kG*dA*dG*dG*d[5mC]*d[5mC]*dG*d[5mC]*d[5mC]*dT*dG*kG*k[5mC]*kG; antisense) [compound 829973]
% Inhibition [5]: 17%

798789 (kG*kT*kA*dT*d[5mC]*dT*dG*dG*dA*dG*dT*dA*dA*kG*kG*kA; antisense) [compound 798789]
% inhibition of SMAD7 mRNA expression [2]: 44%

830059 (kG*kG*kG*d[5mC]*d[5mC]*dA*d[5mC]*d[5mC]*d[5mC]*dA*dG*dT*dG*kA*kG*k[5mC]; antisense) [compound 830059]
% Inhibition [4]: 22%

799282 (antisense kA*k[5mC]*kA*dG*dA*d[5mC]*d[5mC]*dA*d[5mC]*dA*dG*d[5mC]*dA*k[5mC]*k[5mC]*kT) [compound 799282]
% inhibition of SMAD7 mRNA expression [6]: 16%

830093 (k[5mC]*kT*k[5mC]*dA*dT*dT*dA*dG*dT*d[5mC]*d[5mC]*d[5mC]*dA*kT*kG*kA; antisense) [compound 830093]
% Inhibition [4]: 5%
